Measured values from a melting point compilation (Tetko et al.; mined from patent text by program, amines drawn as free bases though some values may be those of a salt).

Row | melting point [°C] | Compound
1 | 155 to 156 | O=C1C(CC23CC(c4ccccc42)c2ccccc23)OCCN1Cc1ccccc1 (centres undefined)
2 | 169 to 172 | CCNC(=S)NC1=Nc2ccc(OC(F)(F)F)cc2CS1
3 | 225 to 230 | Cc1c(C(=O)Nc2ccc(N3CCC(N4CCOCC4)CC3)c([N+](=O)[O-])c2)cnn1-c1ccc(C(F)(F)F)cc1
4 | 246 to 247 | Cc1ccc2oc(S(=O)(=O)c3ccc(=O)[nH]n3)c(C)c2c1
5 | 227 to 235 | O=C(Cc1ccc2ccccc2c1)Nc1cc(-c2ccncc2)[nH]n1
6 | 47 to 50 | CCOC(=O)CCCCCCOc1cc2c(c(Cl)c1Cl)C(=O)C(C)(C1CCCC1)C2 (centres undefined)
7 | 179 | Cc1cc2cc(CN3CCC(CCCC(=O)N4CCCCC4)CC3)cnc2cc1NC(=O)c1ccc(-c2ccc(F)cc2)cc1
8 | 152 to 153 | COc1ccc2cc([C@H](C)C(=O)NOCC(=O)O)ccc2c1
9 | 56 to 59 | CCCCCCCCCCCCc1c([N+](=O)[O-])ncn1C
10 | 155 | CCCCOc1ccc(S(=O)(=O)C2(C(=O)NO)CCN(Cc3ccc(OCCN4CCCCC4)cc3)CC2)cc1
11 | 148 to 151 | COc1cc2c(cc1OC)C(=O)C(C(=O)C(F)(F)F)CS2 (centres undefined)
12 | 206 to 207 | N#CCCNC(=O)c1n[nH]cc1NC(=O)c1ccc2c(c1)CCO2
13 | 99.8 to 101 | CCOC(=O)c1ccc2c(c1)ncn2-c1cccc(COCc2ccccn2)c1
14 | 324 to 326 | COC[C@H]1CC[C@@H](n2c(=O)[nH]c3c(C(N)=O)nc(-c4cccc(O)c4)nc32)CC1
15 | 184 to 186 | Cc1nc2cccc(OC3CCN(C(=O)C(C)C)CC3)c2c(N)c1C(=O)O
16 | 106 to 107 | CCCCC(=O)Nc1c(C)c(C)c2c(c1C)C(c1ccc(C(C)C)cc1)C(C)(C)O2 (centres undefined)
17 | 75.5 to 76.8 | COCCCCNC(=O)C(c1ccccc1)c1ccccc1
18 | 195 to 197 | COC(=O)CCc1ccc(N2CCN(C34CCC(C#N)(CC3)CC4)C2=O)cc1
19 | 52 to 54 | COc1ccc2c(c1)CCC(=C(O)C(F)F)C2=O
20 | 243 to 244 | O=C(O)C1=Cc2cc(I)cc(I)c2OC1C(F)(F)F (centres undefined)
21 | 148 to 149 | O=C(C=Cc1cccnc1)C=Cc1cccnc1
22 | 132 to 136 | Cc1ccc(S(=O)(=O)Nc2ccc(Oc3ccc4nc(COc5ccc(CC6SC(=O)NC6=O)cc5)n(C)c4c3)cc2)cc1 (centres undefined)
23 | 232 to 233 | N#CCOc1cc(O)ccc1-c1nc2nccnc2[nH]1

Row | melting point [°C] | Compound
24 | 230 to 232 | O=C(O)CC(=O)Nc1ccc2c(=O)[nH]c(=O)n(CCCCN3CCC(OC(c4ccccc4)c4ccccc4)CC3)c2c1
25 | 89 to 90.5 | CC(C)(C)C(O)(COc1ccccc1)c1cccnc1 (centres undefined)
26 | 125 | CCc1nn(CCO)c(CC)c1Oc1cc(C#N)cc(C#N)c1
27 | 221 | C#Cc1cnc(OCCC)c(-c2nc3c(CC)n(C4CCN(C(=O)OC(C)(C)C)CC4)nc3c(=O)[nH]2)c1
28 | 53 to 55 | CCC(C)C(CN[C@@H](Cc1ccccc1)C(=O)OCc1ccccc1)NC(=O)OC(C)(C)C (some centres undefined)
29 | 79 | CCCCN(CCCC)CCCNc1ccccc1[N+](=O)[O-]
30 | 93 to 95 | CC1(C)COC(c2c(Cl)cc(Cl)cc2-c2ccc(F)cc2)=N1
31 | 200 to 201 | Cc1c(NC(=O)c2ccc(-c3ccc(F)cc3)cc2)ccc2cc(CN3CCC(CC(=O)N(C)C)CC3)cnc12
32 | 117 to 119 | CC(C)(C)OC(=O)N[C@@H]1CCC(=O)OC1=O
33 | 160 | Cc1cc(NC2=NCCN2CCNC(=O)Nc2ccc(C(=O)O)cc2)nc(C)n1
34 | 126 to 128 | NS(=O)(=O)c1ccc(-n2nc(C(=O)O)cc2-c2ccc(Cl)cc2)cc1
35 | 155 to 160 | CC(NC(=O)c1sc2ccc(C(F)(F)F)cc2c1O)=C(c1ccccc1)c1ccccc1
36 | 136 to 139 | COC(c1ccccc1)C1CCCCCC(=Cc2ccccc2)C1=O (centres undefined)
37 | 89 to 91 | COc1ccccc1CN1CCC(CCC(=O)c2ccc(N3CCCC3)cc2)CC1
38 | 140 to 142 | COC(=O)Nc1ccc(NC(=O)CN(C)C)c(N)c1
39 | 190 to 191 | CCSc1nn2c(-c3ccccc3)nnc2c2ccccc12
40 | 142 to 143 | CCCCOCCOc1ccc(-c2ccc3c(c2)C=C(C(=O)Nc2ccc(SCc4nccn4CCCC(N)=O)cc2)CCN3CC(C)C)cc1
41 | 138 to 139 | CS(=O)(=O)c1ccc(-c2cc(C(F)F)nn2C2CCCCC2)cc1F
42 | 158 to 160 | O=c1oc(-c2cccc(Cl)c2)nc2ccccc12
43 | 77 to 78 | CCOC(=O)[C@H]1[C@@H]2C=CC(=O)[C@@H]21 (racemic)
44 | 228 | Cc1ccc(-c2ccc(OC3SCC(O)C(O)C3O)cn2)cn1 (centres undefined)
45 | 204 to 206 | O=C1C(=Cn2ccnc2)C(c2ccccc2)c2ccccc21 (centres undefined)
46 | 99 | NCC1COc2cc(F)cc(-c3ccccc3C(F)(F)F)c2N1 (centres undefined)

Row | melting point [°C] | Compound
47 | 204 to 206 | COc1cc2cc(C3=NNC(=O)CC3C)sc2cc1OC (centres undefined)
48 | 281 to 283 | O=c1[nH]nc2n1C=Cc1cc(Cl)ccc1C2
49 | 210 to 213 | CCN(C=O)C1CCC(CNc2nc3c(s2)CCOc2ccccc2-3)CC1 (centres undefined)
50 | 174 to 175 | C=CCOc1cccc2c1ONC(=O)C2
51 | 66 | CCc1nc2c([C@H](O)CO)cccc2cc1C
52 | 131 to 132 | COc1ccc2c(c1)C(NC(=NC#N)SC)CCC2 (centres undefined)
53 | 70 | CN1CCN(C(=O)CCC(=O)N[C@@H]2CN3C(=O)N(c4cc(Cl)nc(Cl)c4)C(=O)[C@@]3(Cc3ccc(OC(F)(F)F)cc3)C2)CC1
54 | 122 | CCC(c1ccc(NC(=O)Cc2ccccc2C)c([N+](=O)[O-])c1)n1ccnc1 (centres undefined)
55 | 178 to 180 | Cc1nnc2c(-c3ccccc3)nccn12
56 | 240 | CCOc1cccc(CNC(=O)c2nc3scc(COCc4ccc(C(=O)O)cc4)c3c(=O)[nH]2)c1
57 | 140 to 142 | CCCCC(C(=O)OCC)c1ccc(N2Cc3ccccc3C2=N)cc1 (centres undefined)
58 | 47 to 48 | Cc1ncc(C(=O)NCCOCCO[N+](=O)[O-])s1
59 | > 300 | CC(C)(C)c1cc(C2NC(=O)NC2c2ccccc2)cc(C(C)(C)C)c1O (centres undefined)
60 | 64 to 66 | CCCCCCCCCCCCCCCC(O)=S
61 | 297 to 299 | Cc1cc(C)c2c(n1)Nc1ccccc1NC2=O
62 | 78 to 81 | CC(C)(C)C(O)(Cn1cncn1)C(Br)=C(Cl)Br (centres undefined)
63 | 93 to 96 | CCOC(=O)C(Cc1ccc(OC)cc1)c1cc2cc(C#N)ccc2s1 (centres undefined)
64 | 228 to 231 | O=c1nc(-c2ccccc2)c2cc([N+](=O)[O-])ccc2n1CC12CC3CC(CC(C3)C1)C2
65 | 191 | CCCc1nc(S)nc(O)c1Cc1ccc(-c2ccccc2C#N)cc1
66 | 167 to 168 | COCc1cn2c(C)c(C)nc2c(O)c1CCC(=O)c1ccccc1
67 | 163 to 165 | CC(Cc1cc(C(C)(C)C)c(O)c(C(C)(C)C)c1)C(=O)Oc1ccc(C(=O)c2cc(C(C)(C)C)c(O)c(C(C)(C)C)c2)c(O)c1 (centres undefined)
68 | 169 to 171 | CC(C)CC(=O)C1CCC2C3CN(C(C)(C)C)C4=CC(=O)CCC4(C)C3CCC12CC(=O)O (centres undefined)
69 | 145 | CC(C)(C)C(COC(N)=O)(NC(=O)C(=O)c1c[nH]c2cc(Br)ccc12)c1c[nH]c2ccccc12 (centres undefined)
